Experimental data: ChEMBL document CHEMBL4000225, “A matrix-focused structure-activity and binding site flexibility study of quinolinol inhibitors of botulinum neurotoxin serotype A” (Bioorg Med Chem Lett, 2017)
Calls of active or inactive are those of the source. The calls are words filed in the database; no cut-off is given here.

Assays:
[1] = molecular target: Botulinum neurotoxin type A (Clostridium botulinum, UniProt P0DPI0); test: Inhibition of protease activity of recombinant full length Clostridium botulinum Hall BoNT/A light chain using SNAP-25 peptide (187 to 203 residues) as substrate after 5 mins by HPLC analysis; set-up: species or system Clostridium botulinum A str. Hall
[2] = molecular target: Botulinum neurotoxin type A (Clostridium botulinum) (UniProt P0DPI0); test: (§1) Inhibition of Clostridium botulinum Hall BoNT/A light chain-induced paralysis in CD1 mouse phrenic nerve diaphragm assessed as compound concentration required to cause delay in time to 50% loss of twitch tension evoked by nerve stimulation preincubated with BoNT/A light chain for 15 to 20 mins followed by addition to diaphragm; settings: Clostridium botulinum A str. Hall
[3] = molecular target: Botulinum neurotoxin type A (Clostridium botulinum) (UniProt P0DPI0); test: as §1, with “stimulation at 20 uM” for “stimulation”; settings: Clostridium botulinum A str. Hall

Sequence of Botulinum neurotoxin type A (Clostridium botulinum) (P0DPI0 2-448 limits assumed): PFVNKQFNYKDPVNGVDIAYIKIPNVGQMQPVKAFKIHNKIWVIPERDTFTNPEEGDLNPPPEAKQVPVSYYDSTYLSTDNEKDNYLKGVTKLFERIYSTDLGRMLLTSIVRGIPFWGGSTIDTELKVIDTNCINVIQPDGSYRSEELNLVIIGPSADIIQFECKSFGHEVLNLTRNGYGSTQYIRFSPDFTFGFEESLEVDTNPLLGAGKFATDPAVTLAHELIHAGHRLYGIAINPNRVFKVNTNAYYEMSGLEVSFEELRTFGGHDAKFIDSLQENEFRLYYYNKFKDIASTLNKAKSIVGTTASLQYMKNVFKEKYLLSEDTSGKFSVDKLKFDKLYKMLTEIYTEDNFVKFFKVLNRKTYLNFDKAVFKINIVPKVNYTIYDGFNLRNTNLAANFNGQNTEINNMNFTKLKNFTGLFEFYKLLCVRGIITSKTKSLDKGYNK
Sequence of Botulinum neurotoxin type A (P0DPI0 2-448 limits assumed): as above

Row | Structure (SMILES) | IC50 [1] | Activity [2] | inhibition [3]
1 | Cc1ccc2cccc(O)c2n1 [8-HYDROXY QUINALDINE] | 3900 nM |  | 
2 | Oc1c(C(Nc2cccnc2)c2ccccc2)cc(Cl)c2cccnc12 (stereo not drawn) | 3500 nM | 2 µM | 
3 | Nc1ncccn1 | 4600 nM |  | 
4 | Oc1c(C(Nc2ncccn2)c2ccccc2)ccc2cccnc12 (stereo not drawn) | 2700 nM |  | inactive
5 | Cc1ccc2ccc(C(Nc3ncccn3)c3ccccc3F)c(O)c2n1 (stereo not drawn) | 12000 nM |  | inactive
6 | Cc1ccc2ccc(C(Nc3ccccn3)c3ccc(F)cc3)c(O)c2n1 (stereo not drawn) | 1600 nM | 20 µM | 
7 | Nc1ccccn1 [2-AMINOPYRIDINE] | 1800 nM |  | 
8 | Oc1cccc2cccnc12 [OXYQUINOLINE] | 3900 nM |  | 
9 | Oc1c(C(Nc2ccccn2)c2ccc(F)cc2)ccc2cccnc12 (stereo not drawn) | 4100 nM | 2 µM | 
10 | Oc1ccc(Cl)c2cccnc12 [CLOXYQUIN] | 1900 nM |  | 
11 | Oc1c(C(Nc2ccccn2)c2ccccc2F)ccc2cccnc12 (stereo not drawn) | 1200 nM | 20 µM | 
12 | Cc1ccc2ccc(C(Nc3cccnc3)c3ccc(F)cc3)c(O)c2n1 (stereo not drawn) |  | 20 µM | 
13 | Oc1c(C(Nc2cccnc2)c2ccccc2F)ccc2cccnc12 (stereo not drawn) |  | 10 µM | 
14 | Oc1c(C(Nc2ncccn2)c2ccc(F)cc2)ccc2cccnc12 (stereo not drawn) | 1700 nM | 20 µM | 
15 | Cc1ccc2ccc(C(Nc3ncccn3)c3ccc(F)cc3F)c(O)c2n1 (stereo not drawn) | 4300 nM |  | inactive
16 | O=Cc1ccc(F)cc1 | 2300 nM |  | 
17 | Cc1ccc2ccc(C(Nc3ncccn3)c3ccccc3)c(O)c2n1 (stereo not drawn) | 4600 nM |  | inactive
18 | Oc1c(C(Nc2ccccn2)c2ccc(F)cc2F)ccc2cccnc12 (stereo not drawn) | 3600 nM | 20 µM | 
19 | O=Cc1ccccc1F | 2800 nM |  | 
20 | Cc1ccc2ccc(C(Nc3ccccn3)c3ccccc3)c(O)c2n1 (stereo not drawn) | 700 nM | 2 µM | 
21 | Oc1c(C(Nc2ccccn2)c2ccccc2)cc(Cl)c2cccnc12 (stereo not drawn) | 1500 nM | 2 µM | 
22 | Cc1ccc2ccc(C(Nc3cccnc3)c3ccccc3)c(O)c2n1 (stereo not drawn) |  | 20 µM | 
23 | Oc1c(C(Nc2cccnc2)c2ccc(F)cc2)cc(Cl)c2cccnc12 (stereo not drawn) | 2300 nM | 2 µM | 

Row | Structure (SMILES) | IC50 [1] | Activity [2] | inhibition [3]
24 | Oc1c(C(Nc2ccccn2)c2ccccc2)ccc2cccnc12 (stereo not drawn) |  | 10 µM | 
25 | Oc1c(C(Nc2ncccn2)c2ccc(F)cc2F)cc(Cl)c2cccnc12 (stereo not drawn) | 2200 nM |  | inactive
26 | Cc1ccc2ccc(C(Nc3cccnc3)c3ccccc3F)c(O)c2n1 (stereo not drawn) | 700 nM | 20 µM | 
27 | Oc1c(C(Nc2ccccn2)c2ccccc2F)cc(Cl)c2cccnc12 (stereo not drawn) | 1400 nM | 20 µM | 
28 | Cc1ccc2ccc(C(Nc3cccnc3)c3ccc(F)cc3F)c(O)c2n1 (stereo not drawn) | 12300 nM | 2 µM | 
29 | Oc1c(C(Nc2ccccn2)c2ccc(F)cc2)cc(Cl)c2cccnc12 (stereo not drawn) | 600 nM | 20 µM | 
30 | Oc1c(C(Nc2ncccn2)c2ccccc2F)cc(Cl)c2cccnc12 (stereo not drawn) | 4000 nM | 2 µM | 
31 | Oc1c(C(Nc2cccnc2)c2ccc(F)cc2F)cc(Cl)c2cccnc12 (stereo not drawn) | 600 nM | 20 µM | 
32 | Nc1cccnc1 | 3300 nM |  | 
33 | Oc1c(C(Nc2ncccn2)c2ccccc2)cc(Cl)c2cccnc12 (stereo not drawn) | 4500 nM | 2 µM | 
34 | Oc1c(C(Nc2cccnc2)c2ccccc2F)cc(Cl)c2cccnc12 (stereo not drawn) | 700 nM | 2 µM | 
35 | Cc1ccc2ccc(C(Nc3ccccn3)c3ccc(F)cc3F)c(O)c2n1 (stereo not drawn) | 2700 nM | 20 µM | 
36 | Oc1c(C(Nc2cccnc2)c2ccc(F)cc2)ccc2cccnc12 (stereo not drawn) | 4600 nM | 2 µM | 
37 | Cc1ccc2ccc(C(Nc3ccccn3)c3ccccc3F)c(O)c2n1 (stereo not drawn) | 1400 nM | 2 µM | 
38 | Oc1c(C(Nc2ncccn2)c2ccccc2F)ccc2cccnc12 (stereo not drawn) | 1900 nM |  | inactive
39 | O=Cc1ccccc1 [BENZALDEHYDE] | 2900 nM |  | 
40 | Oc1c(C(Nc2cccnc2)c2ccc(F)cc2F)ccc2cccnc12 (stereo not drawn) | 4400 nM | 20 µM | 
41 | Oc1c(C(Nc2ccccn2)c2ccc(F)cc2F)cc(Cl)c2cccnc12 (stereo not drawn) | 700 nM | 20 µM | 
42 | Oc1c(C(Nc2ncccn2)c2ccc(F)cc2)cc(Cl)c2cccnc12 (stereo not drawn) | 700 nM | 20 µM | 
43 | Cc1ccc2ccc(C(Nc3ncccn3)c3ccc(F)cc3)c(O)c2n1 (stereo not drawn) | 4200 nM | 20 µM | 
44 | O=Cc1ccc(F)cc1F | 4900 nM |  | 
45 | Oc1c(C(Nc2cccnc2)c2ccccc2)ccc2cccnc12 (stereo not drawn) | 6200 nM | 20 µM | 
46 | Oc1c(C(Nc2ncccn2)c2ccc(F)cc2F)ccc2cccnc12 (stereo not drawn) | 12700 nM |  | inactive
